Legend:
[1] = tested on: live cancer cell cultures; assay: Cytometric testing of the patient's cancer cells; format: cell-based, human; conditions: for activity in cytometric testing: Example 14, incompletely resected pancreatic cancer; for sensitivity in cytometric testing: Example 18, ascites of metastatic carcinoma of the urachus
Description: Also disclosed are methods for in vitro testing a drug combination on cancer cells of a subject for cancer cell survival, wherein the drug combination comprises tamoxifen, gefitinib, and vinorelbine. The in vitro testing can comprise administering tamoxifen and gefitinib prior to, together with, and/or after, administering vinorelbine. The in vitro testing can comprise measuring the cancer cell survival. Suitable in vitro tests and methods for measuring the cancer cell survival include Differential Staining Cytotoxicity Assay (DiSC), MTT assay, ATP assay, and fluorescein diacetate assay (FDA). MTT assay is a colorimetric assay for assessing cell metabolic activity. Cellular enzymes are capable of reducing the tetrazolium dye MTT 3-(4,5-dimethylthiazol-2-yl)-2,5-diphenyltetrazolium bromide to its insoluble formazan, which has a purple color. ATP assays are procedures that can measure cell viability based on detection of ATP. All living cells, including bacteria, can be detected with ATP assays. Several detection methods can be used, such as colorimetric, fluorescent and bioluminescent. FDA uses a cell-permeant esterase substrate fluorescein diacetate that can serve as a viability probe and that measures both enzymatic activity, which is required to activate its fluorescence, and cell-membrane integrity, which is required for intracellular retention of their fluorescent product.
Use of tamoxifen at a high dose of 80 milligrams per meter squared (the typical dose in conventional cancer treatment is 20 mg daily) and high dose of gefitinib (187 milligrams per meter squared twice daily for 3 days—the typical dose in conventional cancer treatment is 250 mg daily) has been found in cytometric testing using live cancer cell cultures to transport vinorelbine into the cancer cell, producing extraordinary synergy in causing programmed apoptosis in the cancer cells (programmed cancer cell death) while sparing much of the normal tissues and giving dramatic clinical outcomes.

[2] = tested on: squamous cell carcinoma of the breast; assay: TGV therapy case study, triple-negative squamous cell carcinoma of the breast (Example 11); format: in vivo, human; conditions: person, before TGV
Description: (§1) The 17 case studies represent patients with metastatic esophageal cancer, metastatic skin cancer, metastatic breast cancer, leptomeningeal breast cancer, metastatic prostate cancer, glioblastoma multiforme, lung cancer, bowel cancer, acute myelogenous leukemia, esthesioneuroblastoma, and urothelial cancer.

urothelial cancer = assay: TGV therapy case study, urothelial cancer (Example 17); format: in vivo, human; conditions: person, before TGV (MVAC together with radiation therapy)
Experimental: as §1
A person with regionally advanced bladder cancer was presented with urothelial cancer in the trigone of their bladder. The patient was treated with radiation therapy and with dose dense MVAC (M—methotrexate, V—vinblastine, A—doxorubicin, C—Cisplatin). […] The patient was then treated with gemcitabine and cisplatin to which they had no response. The patient then had the retroperitoneal lymph nodes radiated to a complete response. The patient was followed monthly and when recurrent disease was discovered in the lung and mediastinum, they were started on Padcev® (Enfortumab vedotin), to which they had no response. The patient was then offered TGV. […] The patient had neutropenia within five days and was admitted. […] It was concluded that the patient should not be given repeated chemotherapy until their bone marrow had recovered.

CC(=O)O[C@@]12CO[C@@H]1C[C@H](O)[C@@]1(C)C(=O)[C@H](O)C3=C(C)[C@@H](OC(=O)[C@H](O)[C@@H](NC(=O)OC(C)(C)C)c4ccccc4)C[C@@](O)([C@@H](OC(=O)c4ccccc4)[C@H]21)C3(C)C [Taxotere]
activity in cytometric testing [1]: no evidence of response
response to prior chemotherapy [2]: refractory

O=P1(N(CCCl)CCCl)NCCCO1 (stereo not shown) [Cytoxan]
response to prior chemotherapy [2]: refractory

Nc1ccn([C@@H]2O[C@H](CO)[C@@H](O)C2(F)F)c(=O)n1 [gemcitabine]
activity in cytometric testing [1]: no evidence of response
sensitivity in cytometric testing [1]: hypersensitivity

O=C1[O][Pt]2([NH][C@@H]3CCCC[C@H]3[NH]2)[O]C1=O [oxaliplatin]
activity in cytometric testing [1]: no evidence of response
sensitivity in cytometric testing [1]: hypersensitivity

O=c1[nH]cc(F)c(=O)[nH]1 [5-fluorouracil]
activity in cytometric testing [1]: no evidence of response

Enfortumab vedotin [Padcev®]
response to prior therapy (urothelial cancer): no response

COc1cccc2c1C(=O)c1c(O)c3c(c(O)c1C2=O)C[C@@](O)(C(=O)CO)C[C@@H]3O[C@H]1C[C@H](N)[C@H](O)[C@H](C)O1 [Adriamycin]
response to prior chemotherapy [2]: refractory
